Test system: Botryococcus sp. colonies
Assay: Flotation (buoyancy) of bottom-dwelling colonies as visual assay of hydrocarbon content
Format: cell-based
From the text: Previous investigations (Ohmori, et al. 1984; and Wolf, et al, 1985) verified that colonies containing greater than 20% of dry weight as botryococcenoid hydrocarbons were buoyant and that colonies containing less than 5% hydrocarbons remained sunken at the bottom of the culture vessel, providing a visual method for selecting cells with commercial-grade hydrocarbons. […] Colonies in hydrocarbon-enhancement were placed […] without supplemental carbon dioxide gas to eliminate artifacts of flotation from bubbles. Environmental conditions were 150 μE/m^2/sec PAR to 1700 μE/m^2/sec PAR at 25-37° Centigrade. Nutrient chemicals were reagent grade in all laboratory-scale experiments. In field-scale tests, fertilizer grade chemical nutrients were provided. In order to minimize or eliminate ammonia, nitrates were optionally kiln dried prior to admixture. Supplementation with 0.1% to 100% carbon dioxide gas or carbonate (e.g., 10 mg/ml sodium bicarbonate or potassium bicarbonate) increased hydrocarbon synthesis substantially, especially, when under the highest light intensities with soluble elements of the present invention.
Stock cultures were taken from bottom-dwelling colonies that had been maintained in conventional liquid culture media, typified by approximately 1 ppm to 10 ppm phosphate, 0.01 ppm to 0.3 ppm iron, and 0.01 ppm to 0.5 ppm zinc, as for example, in Showa medium and other phycological media. Aqueous nutrient solutions were placed in sterile culture tubes and flasks and steam sterilized twice for 60 minutes. Following inoculation and growth, colonies were concentrated with overnight settling and approximately one million submerged green colonies were collected from the bottom of culture vessels. Equal volumes were resuspended into replicate culture vessels with equal volumes of enhancement media in the highest light intensities available in preparation for experiments. Control cultures were transferred into equal volumes of Showa medium and placed side by side under identical conditions as controls.

Compound: [Zn+2] [Zn^+2]
- colour of colonies after long exposure (100 ppm Zn^+2, approximately two to eight weeks): color change of the colonies toward amber

Compound: phosphates
- colour of colonies after long exposure (200 mM to 300 mM phosphates, approximately two to eight weeks): color change of the colonies toward amber
- state of colonies after long exposure (after two weeks or more in 300 mM phosphate): remained floating, but cleared to amber
- time until bottom-dwelling colonies began to rise to the surface (in water with up to 300 mM phosphates): ≤ 5 h
- total phosphate concentration that stimulated the rise of colonies to the surface (subtractive matrix analysis, most rapid in presence of soluble Mg, Mn, Fe and Zn^+2): greater than 80 mM

— patent US20090087889A1, “Methods and compositions for growth hydrocarbons in botryococcus sp” (priority 2005, published 2009)
